Experimental findings from the NIST ThermoML archive (doi:10.1016/j.jct.2014.05.003) are described below.

In general, mass density refers to the mass of a sample divided by its volume.

The nature of data set [1]: wn = mass fraction of the nth substance listed. The settings on record: 298.15 K, 100 kPa, Liquid, Vibrating tube method.
Data set [2] is described as follows: relative permittivity at zero frequency (dimensionless); wn = mass fraction of the nth substance listed. The note with it: 298.15 K, 100 kPa, Liquid, Coaxial cylinder capacitor.

Molecules are shown by their SMILES. Numbers after ± are expanded uncertainties.

Regarding `CC(=O)N(C)C` [N,N-dimethylethanamide] + O, the figures for the mass density in data set [1] (w1 = 0.1), in data set [1] (w1 = 0.2) and in data set [1] (w1 = 0.3) were 995.7 ± 1 kg/m3, 996.2 ± 1 kg/m3 and 997.3 ± 1 kg/m3, respectively.
For `CN(C)C=O` [dimethylformamide] + O, the mass density in data set [1] (w1 = 0.1) is 996.3 ± 1 kg/m3; in data set [1] (w1 = 0.2), 996.4 ± 1 kg/m3; in data set [1] (w1 = 0.3) it was 996.9 ± 1 kg/m3. The entries for the “relative permittivity at zero frequency” value in data set [2] (w1 = 0.1), in data set [2] (w1 = 0.2) and in data set [2] (w1 = 0.3) were 76.8 ± 0.2, 74.6 ± 0.2 and 72.2 ± 0.2, respectively.
